From ChEMBL document CHEMBL5303573, “Mapping human microbiome drug metabolism by gut bacteria and their genes” (Nature, 2019) come the findings set out here.

The first data set can be described thus: The drug is tested on Bacteroides caccae strain: ATCC43185 for biotransformation. The drug concentrations were measured before and after a 12-h incubation by liquid-chromatography-coupled mass spectrometry (LC–MS). The conditions noted are these: 2 µM.
In the case of `CC(=O)OCC(=O)[C@@]12N=C(C)O[C@@H]1C[C@H]1[C@@H]3CCC4=CC(=O)C=C[C@]4(C)[C@H]3[C@@H](O)C[C@@]12C` [DEFLAZACORT], the “Bacterial Biotransformation” value is “Compound metabolized”.

A short description of a further data set: The drug is tested on Bacteroides fragilis strain: ATCC43859 for biotransformation. The drug concentrations were measured before and after a 12-h incubation by liquid-chromatography-coupled mass spectrometry (LC–MS). The conditions noted are these: 2 µM.
In the case of `CC(=O)OCC(=O)[C@@]12N=C(C)O[C@@H]1C[C@H]1[C@@H]3CCC4=CC(=O)C=C[C@]4(C)[C@H]3[C@@H](O)C[C@@]12C` [DEFLAZACORT], the “Bacterial Biotransformation” value is recorded as “Compound metabolized”.

For a further data set the following is noted: bacteroides fragilis, 12 h, 2 µM.
Description: The drug is tested on Bacteroides fragilis strain: 3397 (T10) for biotransformation. The drug concentrations were measured before and after a 12-h incubation by liquid-chromatography-coupled mass spectrometry (LC–MS)
In the case of `CC(=O)OCC(=O)[C@@]12N=C(C)O[C@@H]1C[C@H]1[C@@H]3CCC4=CC(=O)C=C[C@]4(C)[C@H]3[C@@H](O)C[C@@]12C` [DEFLAZACORT], the “Bacterial Biotransformation” value is reported as “Compound metabolized”.

A short description of the next data set: The drug is tested on Clostridium scindens strain: ATCC35704 for biotransformation. The drug concentrations were measured before and after a 12-h incubation by liquid-chromatography-coupled mass spectrometry (LC–MS). The following applies: 2 µM.
As for `CC(=O)OCC(=O)[C@@]12N=C(C)O[C@@H]1C[C@H]1[C@@H]3CCC4=CC(=O)C=C[C@]4(C)[C@H]3[C@@H](O)C[C@@]12C` [DEFLAZACORT], the “Bacterial Biotransformation” value is given as “Compound metabolized”.

The next data set is described as follows: The drug is tested on Eubacterium hallii strain: DSM3353 for biotransformation. The drug concentrations were measured before and after a 12-h incubation by liquid-chromatography-coupled mass spectrometry (LC–MS). The following applies: anaerobutyricum hallii, 2 µM.
Consider `CC(=O)OCC(=O)[C@@]12N=C(C)O[C@@H]1C[C@H]1[C@@H]3CCC4=CC(=O)C=C[C@]4(C)[C@H]3[C@@H](O)C[C@@]12C` [DEFLAZACORT], for which the “Bacterial Biotransformation” value is on record as “Compound metabolized”.

Another data set in a line: The drug is tested on Odoribacter splanchnicus strain: fecal isolate for biotransformation. The drug concentrations were measured before and after a 12-h incubation by liquid-chromatography-coupled mass spectrometry (LC–MS). The conditions noted are these: 2 µM.
Turning to `CC(=O)OCC(=O)[C@@]12N=C(C)O[C@@H]1C[C@H]1[C@@H]3CCC4=CC(=O)C=C[C@]4(C)[C@H]3[C@@H](O)C[C@@]12C` [DEFLAZACORT], the “Bacterial Biotransformation” value is given as “Compound metabolized”.

For another data set the following is noted: bacteroides thetaiotaomicron, 12 h, 2 µM.
Description: The drug is tested on Bacteroides thetaiotaomicron strain: 3731 for biotransformation. The drug concentrations were measured before and after a 12-h incubation by liquid-chromatography-coupled mass spectrometry (LC–MS)
As to `CC(=O)OCC(=O)[C@@]12N=C(C)O[C@@H]1C[C@H]1[C@@H]3CCC4=CC(=O)C=C[C@]4(C)[C@H]3[C@@H](O)C[C@@]12C` [DEFLAZACORT], the “Bacterial Biotransformation” value is reported as “Compound metabolized”.

A short description of a further data set: The drug is tested on Collinsella aerofaciens strain: ATCC25986 for biotransformation. The drug concentrations were measured before and after a 12-h incubation by liquid-chromatography-coupled mass spectrometry (LC–MS). The following applies: 2 µM.
As for `CC(=O)OCC(=O)[C@@]12N=C(C)O[C@@H]1C[C@H]1[C@@H]3CCC4=CC(=O)C=C[C@]4(C)[C@H]3[C@@H](O)C[C@@]12C` [DEFLAZACORT], the “Bacterial Biotransformation” value is recorded as “Compound metabolized”.

The nature of the next data set: The drug is tested on Enterobacter cancerogenus strain: ATCC35316 for biotransformation. The drug concentrations were measured before and after a 12-h incubation by liquid-chromatography-coupled mass spectrometry (LC–MS). The conditions noted are these: 2 µM.
As to `CC(=O)OCC(=O)[C@@]12N=C(C)O[C@@H]1C[C@H]1[C@@H]3CCC4=CC(=O)C=C[C@]4(C)[C@H]3[C@@H](O)C[C@@]12C` [DEFLAZACORT], the “Bacterial Biotransformation” value is “Compound metabolized”.

The nature of another data set: The drug is tested on Bacteroides fragilis strain: HMW615 for biotransformation. The drug concentrations were measured before and after a 12-h incubation by liquid-chromatography-coupled mass spectrometry (LC–MS). The following applies: 2 µM.
For `CC(=O)OCC(=O)[C@@]12N=C(C)O[C@@H]1C[C@H]1[C@@H]3CCC4=CC(=O)C=C[C@]4(C)[C@H]3[C@@H](O)C[C@@]12C` [DEFLAZACORT], the “Bacterial Biotransformation” value is given as “Compound metabolized”.

A short description of a further data set: The drug is tested on Bifidobacterium longum subsp. Infantis strain: CCUG52486 for biotransformation. The drug concentrations were measured before and after a 12-h incubation by liquid-chromatography-coupled mass spectrometry (LC–MS). The following applies: 2 µM.
As for `CC(=O)OCC(=O)[C@@]12N=C(C)O[C@@H]1C[C@H]1[C@@H]3CCC4=CC(=O)C=C[C@]4(C)[C@H]3[C@@H](O)C[C@@]12C` [DEFLAZACORT], the “Bacterial Biotransformation” value is “Compound metabolized”.

The next data set in a line: The drug is tested on Bacteroides xylanisolvens strain: DSM18836 for biotransformation. The drug concentrations were measured before and after a 12-h incubation by liquid-chromatography-coupled mass spectrometry (LC–MS). The following applies: 2 µM.
Consider `CC(=O)OCC(=O)[C@@]12N=C(C)O[C@@H]1C[C@H]1[C@@H]3CCC4=CC(=O)C=C[C@]4(C)[C@H]3[C@@H](O)C[C@@]12C` [DEFLAZACORT], for which the “Bacterial Biotransformation” value is recorded as “Compound metabolized”.

For another data set the following is noted: parabacteroides distasonis, 12 h, 2 µM.
Description: The drug is tested on Parabacteroides distasonis strain: ATCC8503 for biotransformation. The drug concentrations were measured before and after a 12-h incubation by liquid-chromatography-coupled mass spectrometry (LC–MS)
In the case of `CC(=O)OCC(=O)[C@@]12N=C(C)O[C@@H]1C[C@H]1[C@@H]3CCC4=CC(=O)C=C[C@]4(C)[C@H]3[C@@H](O)C[C@@]12C` [DEFLAZACORT], the “Bacterial Biotransformation” value is on record as “Compound metabolized”.

A further data set in a line: The drug is tested on Coprococcus comes strain: ATCC27758 for biotransformation. The drug concentrations were measured before and after a 12-h incubation by liquid-chromatography-coupled mass spectrometry (LC–MS). Type of data set: ADME. More on the design: dose 2 uM, timepoint 0 vs 12 hours. The following applies: 2 µM.
`CC(=O)OCC(=O)[C@@]12N=C(C)O[C@@H]1C[C@H]1[C@@H]3CCC4=CC(=O)C=C[C@]4(C)[C@H]3[C@@H](O)C[C@@]12C` [DEFLAZACORT]: the “Bacterial Biotransformation” value was “Compound metabolized”.

Another data set is described as follows: The drug is tested on Ruminococcus lactaris strain: ATCC29176 for biotransformation. The drug concentrations were measured before and after a 12-h incubation by liquid-chromatography-coupled mass spectrometry (LC–MS). The conditions noted are these: 2 µM.
For `CC(=O)OCC(=O)[C@@]12N=C(C)O[C@@H]1C[C@H]1[C@@H]3CCC4=CC(=O)C=C[C@]4(C)[C@H]3[C@@H](O)C[C@@]12C` [DEFLAZACORT], the “Bacterial Biotransformation” value is “Compound metabolized”.

For another data set the following is noted: anaerostipes sp., 12 h, 2 µM.
Description: The drug is tested on Anaerostipes sp. strain: fecal isolate for biotransformation. The drug concentrations were measured before and after a 12-h incubation by liquid-chromatography-coupled mass spectrometry (LC–MS)
Turning to `CC(=O)OCC(=O)[C@@]12N=C(C)O[C@@H]1C[C@H]1[C@@H]3CCC4=CC(=O)C=C[C@]4(C)[C@H]3[C@@H](O)C[C@@]12C` [DEFLAZACORT], the “Bacterial Biotransformation” value was “Compound metabolized”.

A short description of the next data set: The drug is tested on Clostridium sporogenes strain: ATCC15579 for biotransformation. The drug concentrations were measured before and after a 12-h incubation by liquid-chromatography-coupled mass spectrometry (LC–MS). The following applies: 2 µM.
`CC(=O)OCC(=O)[C@@]12N=C(C)O[C@@H]1C[C@H]1[C@@H]3CCC4=CC(=O)C=C[C@]4(C)[C@H]3[C@@H](O)C[C@@]12C` [DEFLAZACORT]: the “Bacterial Biotransformation” value was “Compound metabolized”.

A short description of another data set: The drug is tested on Bacteroides finegoldii strain: DSM17565 for biotransformation. The drug concentrations were measured before and after a 12-h incubation by liquid-chromatography-coupled mass spectrometry (LC–MS). The conditions noted are these: 2 µM.
`CC(=O)OCC(=O)[C@@]12N=C(C)O[C@@H]1C[C@H]1[C@@H]3CCC4=CC(=O)C=C[C@]4(C)[C@H]3[C@@H](O)C[C@@]12C` [DEFLAZACORT]: the “Bacterial Biotransformation” value was “Compound metabolized”.

The conditions of another data set: bacteroides intestinalis, 12 h, 2 µM.
Description: The drug is tested on Bacteroides intestinalis strain: DSM17393 for biotransformation. The drug concentrations were measured before and after a 12-h incubation by liquid-chromatography-coupled mass spectrometry (LC–MS)
Take `CC(=O)OCC(=O)[C@@]12N=C(C)O[C@@H]1C[C@H]1[C@@H]3CCC4=CC(=O)C=C[C@]4(C)[C@H]3[C@@H](O)C[C@@]12C` [DEFLAZACORT]: the “Bacterial Biotransformation” value is listed as “Compound metabolized”.

The next data set in a line: The drug is tested on Providencia rettgeri strain: DSM1131 for biotransformation. The drug concentrations were measured before and after a 12-h incubation by liquid-chromatography-coupled mass spectrometry (LC–MS). The conditions noted are these: 2 µM. The data set is classed as ADME. Set-up: dose 2 uM, timepoint 0 vs 12 hours.
Turning to `CC(=O)OCC(=O)[C@@]12N=C(C)O[C@@H]1C[C@H]1[C@@H]3CCC4=CC(=O)C=C[C@]4(C)[C@H]3[C@@H](O)C[C@@]12C` [DEFLAZACORT], the “Bacterial Biotransformation” value is recorded as “Compound metabolized”.
